Laboratory results from BindingDB's records for doi:10.1021/jm9012642 (Wyeth Research, 2009).

Target: Serine/threonine-protein kinase mTOR (Homo sapiens, UniProt P42345)
Assay: mTOR Kinase Assay
Conditions: 25 °C

Oc1cccc(-c2nc(N3CCOCC3)c3cnn(C4CCN(Cc5cccnc5)CC4)c3n2)c1 [JMC527081 Compound 5f]
IC50: 47 nM
